Values of other authors as cited in patent US7902187B2, “6-substituted 2-(benzimidazolyl)purine and purinone derivatives for immunosuppression” (Wyeth LLC, priority 2006, dated 2011).
Where two headings read alike, the source gives them in different places.

Assays:
[1] = murine model of heart transplantation; cited from earlier work
[2] = primate model of kidney transplantation; cited from earlier work
[3] = NOD mouse; cited from earlier work
Jak3 = molecular target: T1, Jak3 (Homo sapiens, UniProt P52333); settings: leukemia cells; cited from earlier work
T1 construct: host or cells: leukemia cells (not specified)
T1 sequence (P52333 1-1124): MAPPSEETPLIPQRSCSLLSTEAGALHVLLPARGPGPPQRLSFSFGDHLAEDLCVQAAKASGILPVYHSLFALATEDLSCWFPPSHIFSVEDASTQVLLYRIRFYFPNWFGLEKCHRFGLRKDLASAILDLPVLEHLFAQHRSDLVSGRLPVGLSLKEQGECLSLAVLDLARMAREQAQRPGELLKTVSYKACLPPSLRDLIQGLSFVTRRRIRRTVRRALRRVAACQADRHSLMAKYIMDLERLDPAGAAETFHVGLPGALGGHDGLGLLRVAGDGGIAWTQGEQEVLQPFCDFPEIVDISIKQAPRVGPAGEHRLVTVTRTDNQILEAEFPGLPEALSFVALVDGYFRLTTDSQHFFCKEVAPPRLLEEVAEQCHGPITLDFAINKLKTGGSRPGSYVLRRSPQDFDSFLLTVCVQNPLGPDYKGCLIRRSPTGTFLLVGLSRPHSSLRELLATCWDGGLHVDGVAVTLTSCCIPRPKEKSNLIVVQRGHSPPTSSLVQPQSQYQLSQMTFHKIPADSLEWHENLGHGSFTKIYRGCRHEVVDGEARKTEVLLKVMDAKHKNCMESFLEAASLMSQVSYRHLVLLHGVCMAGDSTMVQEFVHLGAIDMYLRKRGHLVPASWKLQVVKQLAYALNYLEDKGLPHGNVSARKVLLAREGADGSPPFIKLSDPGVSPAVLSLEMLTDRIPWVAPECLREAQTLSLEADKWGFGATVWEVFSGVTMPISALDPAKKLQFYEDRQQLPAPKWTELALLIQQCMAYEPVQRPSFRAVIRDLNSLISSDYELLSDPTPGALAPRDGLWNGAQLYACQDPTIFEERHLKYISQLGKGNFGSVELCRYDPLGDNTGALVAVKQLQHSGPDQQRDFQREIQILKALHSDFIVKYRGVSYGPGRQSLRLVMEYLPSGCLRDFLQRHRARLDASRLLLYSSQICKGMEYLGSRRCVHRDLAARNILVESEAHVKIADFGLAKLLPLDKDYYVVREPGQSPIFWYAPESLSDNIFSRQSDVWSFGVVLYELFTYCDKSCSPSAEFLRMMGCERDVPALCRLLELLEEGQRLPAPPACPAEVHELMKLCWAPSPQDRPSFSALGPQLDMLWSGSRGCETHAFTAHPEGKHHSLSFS

[4] = in vivo; cited from earlier work

Structure (SMILES) | animal survival [1] | animal survival [2] | spontaneous autoimmune diabetes development [3] | selectivity of Jak3 inhibition (Jak3) | severity of GVHD [4]
C[C@@H]1CCN(C(=O)CC#N)C[C@@H]1N(C)c1ncnc2[nH]ccc12 [CP-690,550] | prolong animal survival | prolong animal survival |  |  | 
COc1cc2ncnc(Nc3ccc(O)cc3)c2cc1OC [JANEX-1] |  |  | prevent spontaneous autoimmune diabetes development | selective inhibitors of Jak3 | attenuate the severity of GVHD
COc1cc2ncnc(Nc3ccc(O)c(Br)c3)c2cc1OC [WHI-P154] |  |  |  | selective inhibitors of Jak3 | 
